Source: BindingDB's records for doi:10.1016/s0960-894x(00)00294-8 (Universität Göttingen, 2000)

Assay: Compound was evaluated for inhibitory effect against protein phosphatase I (PP-I)

For CCCCCCCCCCCCCCCC(=O)OC[C@@H](O)[C@H]1OC(=O)[C@]2(O)CCC(O)O[C@]12OC (stereo partly drawn) [Hexadecanoic acid (R)-2-((4aS,7R,7aR)-2,4a-dihydroxy-7a-methoxy-5-oxo-hexahydro-furo[3,4-b]pyran-7-yl)-2-hydroxy-ethyl ester], the IC50 was 11 µM.
Work on CCCCCCCCCCCCCCCC(=O)OC[C@@H](O)[C@H]1OC(=O)[C@]2(CCC(OC(C)C)O2)C1=O (stereo partly drawn) [Hexadecanoic acid (R)-2-hydroxy-2-((5S,8R)-2-isopropoxy-6,9-dioxo-1,7-dioxa-spiro[4.4]non-8-yl)-ethyl ester] yielded an IC50 of 3 µM.
